Some results are limits rather than exact numbers.

The IC50 is the concentration that inhibits the measured activity by half.

Data set [1] is described as follows: Brain-plasma Pharmacokinetics. As to conditions: male, CD-1 (ICR), mouse, brain/plasma, 20 mg/kg.
Experimental: (§1) Nine male CD-1 mice (ICR mouse) aged 6 to 9 weeks were treated with the compounds according to the Examples at a concentration of 20 mg/kg. 0.025 mL of blood and brain tissue were collected at 1 hour, 8 hours, and 24 hours post-treatment, respectively. The collected blood was placed in an EDTA-K2 tube, centrifuged at 4°C at 3,200 x g for 10 minutes, and the supernatant plasma was collected. The brain tissue samples were collected immediately after euthanizing the CD-1 mice after blood collection and performing cardiac perfusion with cold saline. After collection, the brain tissues were washed with cold saline, wiped and dried, weighed, and homogenized using a homogenization buffer (15 mM PBS (pH 7.4): MeOH = 2:1) at a ratio of 1:3 (1 g of tissue to 3 mL of buffer, dilution ratio 4). Plasma and homogenized brain tissue samples were each transferred to a polypropylene microcentrifuge tube and stored at -60°C or lower. The concentration of compounds distributed in plasma and brain tissue was analyzed using LC-MS/MS, and the distribution in brain tissue compared to plasma was calculated as follows. Brain-to-plasma ratio = AUC(0-t) brain tissue /AUC(0-t) plasma [formula]
(§2) In the Brain-plasma Pharmacokinetics assay, when a brain-to-plasma ratio value was 0.05 or more and less than 0.1, + was indicated, when a brain-to-plasma ratio value was 0.1 or more and less than 0.25, ++ was indicated, and when a brain-to-plasma ratio value was more than 0.25, +++ was indicated.
For data set [2], the system named is phospho-ERK. The experiment in a line: phospho-ERK assay (AlphaLisa) in H358 cells. The data set is classed as cell-based. The note with it: Homo sapiens, NCI-H358, 1.5 hours incubation, read-out: pERK assay (IC50). Here is the method: H358 [20,000 cell/well] was contained in 40 µL of the cell culture solution (RPMI, 10% FBS, penicillin, streptomycin) and placed on a 384-well plate. After 24 hours, the serially diluted compound according to the Examples (concentration of minimum 0.13 nM, maximum 10 µM) was contained in 10 µL of the cell culture solution, put into wells containing cells, and incubated in a cell incubator for 1.5 hours. As a positive control group, the selective SHP2 inhibitor, TNO155 (Chemietek, US; concentration ranging from 0.13 nM to 10 µM) was used.
Thereafter, phospho-ERK was labeled using an AlphaLisa system from PerkinElmer according to the manufacturer's instructions, and then fluorescence (680 nm excitation wavelength, 615 nm emission wavelength) values were measured using a Varioskan equipment from Thermo. IC50 values were obtained using Graphad's Prism from the measured values depending on the concentration.
Intracellular SHP2 activity can be confirmed by measuring the degree of phosphorylation of ERK (extracellular signal regulated kinase), which represents Ras/Raf/ERK, a downstream signal pathway of SHP2. Inhibition of ERK phosphorylation by SHP2 inhibitors was confirmed through phospho-ERK analysis, which confirmed that the SHP2 inhibitors of the present disclosure have excellent activity in inhibiting ERK phosphorylation mediated by SHP2.
A general note: Bead proximity is the source of the signal in Alpha formats.

Data set [3] deals with H358 cells. In words: Cell viability (3D spheroid, 3D CellTiter-Glo). As to conditions: Homo sapiens, NCI-H358, 120 h; H358 spheroids, 5 days treatment. The data set is classed as cell-based. The method, boiled down: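 H358 human NSCLC cells (4 x 10^3/well) grown 72 h in RPMI-1640 with 10% FBS to form spheroids, then treated with serially diluted compounds (1.5 nM–10 µM) for 5 days. Viability read by 3D CellTiter-Glo luminescence after 25 min at room temperature; IC50 from concentration–response.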
On the technique in general: Cellular ATP, detected with luciferase, serves as a proxy for viable cell number.

Data set [4] addresses T1, SHP2 (Homo sapiens, UniProt Q06124).
T1 construct: SHP2 (full length, diluted to 100 pM final concentration in reaction buffer, BPS bioscience, US); purchased BPS bioscience, US
T1 sequence (Q06124 1-593): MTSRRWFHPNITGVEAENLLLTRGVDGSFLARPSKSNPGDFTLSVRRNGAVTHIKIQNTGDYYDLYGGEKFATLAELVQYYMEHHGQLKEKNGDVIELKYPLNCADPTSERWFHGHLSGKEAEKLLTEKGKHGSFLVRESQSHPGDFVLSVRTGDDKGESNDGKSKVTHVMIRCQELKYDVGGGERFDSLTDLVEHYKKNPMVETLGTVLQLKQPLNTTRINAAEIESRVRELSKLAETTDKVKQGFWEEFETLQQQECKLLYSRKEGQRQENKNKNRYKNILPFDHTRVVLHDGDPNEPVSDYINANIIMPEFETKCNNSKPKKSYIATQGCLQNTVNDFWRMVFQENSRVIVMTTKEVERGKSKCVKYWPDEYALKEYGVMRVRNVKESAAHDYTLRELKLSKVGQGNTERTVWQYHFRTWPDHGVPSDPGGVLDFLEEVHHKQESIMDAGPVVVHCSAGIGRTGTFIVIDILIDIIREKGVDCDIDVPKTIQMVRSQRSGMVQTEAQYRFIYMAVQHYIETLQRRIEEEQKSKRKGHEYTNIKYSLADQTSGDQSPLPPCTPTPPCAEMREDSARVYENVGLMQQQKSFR
The experiment in a line: Phosphatase assay (PTPase assay, DiFMUP substrate). In kind it is biochemical. As to conditions: full length SHP2 100 pM activated with SHP2 activating peptide, DiFMUP 80 µM, 2 hours; read-out: PTPase assay (IC50). In a few lines:
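Full-length SHP2 at 100 pM final was activated with SHP2 activating peptide for 30 min in HEPES buffer pH 7.2 with NaCl, KCl, EDTA, DTT and P-20, then compound (0.6 nM–10 µM) added. DiFMUP (80 µM) was reacted for 2 h in total; fluorescence read at 340/450 nm and IC50 fitted from concentration-response.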

A short description of data set [5]: in vivo. The note with it: mouse, 20 mg/kg.
Experimental: as §1, §2

In data set [1], `COC(C)(C)Cn1cnc2ccc(Sc3cnc(N4CCC5(CC4)Cc4ccccc4[C@H]5N)cn3)c(Cl)c2c1=O` [Example 27, (S)-6-((5-(1-amino-1,3-dihydrospiro[indene-2,4'-piperidin]-1'-yl)pyrazin-2-yl)thio)-5-chloro-3-(2-methoxy-2-methylpropyl)quinazolin-4(3H)-one] showed a Kp at 24 h greater than 0.25. Further, the concentration for half-maximal inhibition (IC50) was less than 45 nM in data set [2], less than 10 nM in data set [3] and less than 3 nM in data set [4].

For the compound `COC(C)(C)Cn1cnc2ccc(Sc3cnc(N4CCC5(CC4)Cc4ccccc4[C@H]5N)cn3)cc2c1=O` [Example 29, (S)-6-((5-(1-amino-1,3-dihydrospiro[indene-2,4'-piperidin]-1'-yl)pyrazin-2-yl)thio)-3-(2-methoxy-2-methylpropyl)quinazolin-4(3H)-one], the Kp at 24 h in data set [1] is greater than 0.25. Moreover, the 50% inhibitory concentration (IC50) in data set [2] was 45 to 1500 nM; in data set [3] it was less than 10 nM; in data set [4], 3 to 100 nM.

`COC(C)(C)Cn1cnc2ccc(Sc3nc(CO)c(N4CCC5(CC4)Cc4ccccc4[C@H]5N)nc3C)c(Cl)c2c1=O` [Example 35, (S)-6-((5-(1-amino-1,3-dihydrospiro[indene-2,4'-piperidin]-1'-yl)-6-(hydroxymethyl)-3-methylpyrazin-2-yl)thio)-5-chloro-3-(2-methoxy-2-methylpropyl)quinazolin-4(3H)-one] came in with a Kp at 24 h in data set [1] of 0.1 to 0.25. For the same compound, the IC50 is 45 to 1500 nM in data set [2], less than 10 nM in data set [3] and less than 3 nM in data set [4].

In data set [1], `COC(C)(C)Cn1cnc2ccc(Sc3ncc(N4CCC5(CC4)Cc4ccccc4[C@H]5N)nc3N)c(Cl)c2c1=O` [Example 36, (S)-6-((3-amino-5-(1-amino-1,3-dihydrospiro[indene-2,4'-piperidin]-1'-yl)pyrazin-2-yl)thio)-5-chloro-3-(2-methoxy-2-methylpropyl)quinazolin-4(3H)-one] came in with a Kp at 24 h of 0.05 to 0.1. For the same compound, the IC50 in data set [2] was less than 45 nM; in data set [3] it was less than 10 nM; in data set [4], less than 3 nM.

For the compound `COC(C)(C)Cn1cnc2ccc(Sc3ncc(N4CCC5(CC4)CO[C@@H](C)[C@H]5N)nc3N)c(Cl)c2c1=O` [Example 37, 6-((3-amino-5-((3S,4S)-4-amino-3-methyl-2-oxa-8-azaspiro[4.5]decan-8-yl)pyrazin-2-yl)thio)-5-chloro-3-(2-methoxy-2-methylpropyl)quinazolin-4(3H)-one], the Kp at 24 h in data set [1] was in the range of 0.05 to 0.1. For the same compound, the results for the concentration for half-maximal inhibition (IC50) in data set [2], in data set [3] and in data set [4] were 45 to 1500 nM, 10 to 50 nM and 3 to 100 nM, respectively.

Compound `Cn1ccc2ccc(Sc3cnc(N4CCC5(CC4)Cc4ccccc4[C@H]5N)cn3)c(Cl)c2c1=O` [Example 41, (S)-7-((5-(1-amino-1,3-dihydrospiro[indene-2,4'-piperidin]-1'-yl)pyrazin-2-yl)thio)-8-chloro-2-methylisoquinolin-1(2H)-one] showed a Kp at 24 h in data set [1] greater than 0.25. In addition, the IC50 in data set [2] was 45 to 1500 nM; in data set [3] it was 10 to 50 nM; in data set [4] it was less than 3 nM.

`COC(C)(C)Cn1ccc2ccc(Sc3cnc(N4CCC5(CC4)Cc4ccccc4[C@H]5N)cn3)c(Cl)c2c1=O` [Example 43, (S)-7-((5-(1-amino-1,3-dihydrospiro[indene-2,4'-piperidin]-1'-yl)pyrazin-2-yl)thio)-8-chloro-2-(2-methoxy-2-methylpropyl)isoquinolin-1(2H)-one] registered a Kp at 24 h in data set [1] greater than 0.25. Besides, the IC50 in data set [2] was 45 to 1500 nM; in data set [3], less than 10 nM; in data set [4], less than 3 nM.

`COC(C)(C)Cn1ccc2ccc(Sc3cnc(N4CCC5(CC4)Cc4ccccc4[C@H]5N)cn3)cc2c1=O` [Example 44, (S)-7-((5-(1-amino-1,3-dihydrospiro[indene-2,4'-piperidin]-1'-yl)pyrazin-2-yl)thio)-2-(2-methoxy-2-methylpropyl)isoquinolin-1(2H)-one] registered a Kp at 24 h in data set [1] greater than 0.25. In addition, the IC50 in data set [2] was 45 to 1500 nM; in data set [3], less than 10 nM; in data set [4], 3 to 100 nM.

Compound `Cn1ccc2ccc(Sc3cnc(N4CCC5(CC4)Cc4ccccc4[C@H]5N)cn3)cc2c1=O` [Example 45, (S)-7-((5-(1-amino-1,3-dihydrospiro[indene-2,4'-piperidin]-1'-yl)pyrazin-2-yl)thio)-2-methylisoquinolin-1(2H)-one] came in with a Kp at 24 h in data set [1] of 0.1 to 0.25. Besides, the 50% inhibitory concentration (IC50) in data set [2] was 45 to 1500 nM; in data set [3] it was less than 10 nM; in data set [4], less than 3 nM.

In data set [1], `Cn1ccc2ccc(Sc3ncc(N4CCC5(CC4)Cc4ccccc4[C@H]5N)nc3N)c(Cl)c2c1=O` [Example 47, (S)-7-((3-amino-5-(1-amino-1,3-dihydrospiro[indene-2,4'-piperidin]-1'-yl)pyrazin-2-yl)thio)-8-chloro-2-methylisoquinolin-1(2H)-one] returned a Kp at 24 h of 0.1 to 0.25. Besides, the figures for the IC50 in data set [2], in data set [3] and in data set [4] were less than 45 nM, less than 10 nM and less than 3 nM, respectively.

`CC(C)n1ccc2ccc(Sc3ncc(N4CCC5(CC4)Cc4ccccc4[C@H]5N)nc3N)c(Cl)c2c1=O` [Example 48, (S)-7-((3-amino-5-(1-amino-1,3-dihydrospiro[indene-2,4'-piperidin]-1'-yl)pyrazin-2-yl)thio)-8-chloro-2-isopropylisoquinolin-1(2H)-one] showed a Kp at 24 h in data set [1] of 0.1 to 0.25. Moreover, the IC50 is 45 to 1500 nM in data set [2], less than 10 nM in data set [3] and less than 3 nM in data set [4].

In turn, `COC(C)Cn1ccc2ccc(Sc3ncc(N4CCC5(CC4)Cc4ccccc4[C@H]5N)nc3N)c(Cl)c2c1=O` (some centres unmarked) [Example 49] gave a Kp at 24 h in data set [1] of 0.1 to 0.25. Besides, the IC50 is less than 45 nM in data set [2], less than 10 nM in data set [3] and less than 3 nM in data set [4].

`COC(C)(C)Cn1cnc2ccc(Sc3cnc(N4CCC5(CC4)Oc4ccccc4[C@H]5N)cn3)c(Cl)c2c1=O` [Example 50, (R)-6-((5-(3-amino-3H-spiro[benzofuran-2,4'-piperidin]-1'-yl)pyrazin-2-yl)thio)-5-chloro-3-(2-methoxy-2-methylpropyl)quinazolin-4(3H)-one] showed a Kp at 24 h in data set [5] greater than 0.25. Also, in data set [3], the IC50 was less than 10 nM.

For the origin of these results see patent EP4647433A1, “SHP2 INHIBITOR AND USES THEREOF” (Kanaph Therapeutics Inc., priority 2023, dated 2024).
